In brackets after ≈: the same amount, converted by molar mass.
Tests used:
[1] = biological target: T1, HIV reverse transcriptase (RT) (Human immunodeficiency virus type 1 group M subtype B, UniProt P03366); assay: Assay for HIV reverse transcriptase inhibition (scintillation proximity assay); assay type: biochemical; conditions: RT from HIV cloned in E. coli; SPA, 60 minutes (37° C.); read-out: Reverse Transcriptase Assay IC50 (converted)
T1 construct: The enzyme RT (from HIV cloned in E. coli); purchased HT-Biotechnology Ltd, Cambridge, UK; host or cells: E. coli
Protocol: Assay of the Substances for HIV Reverse Transcriptase Inhibition
The activity of reverse transcriptase (RT) was determined with the aid of a scintillation proximity assay (SPA).
The reagent kit for the RT-SPA was obtained from Amersham/Buchler (Braunschweig).
The enzyme RT (from HIV cloned in E. coli) originated from HT-Biotechnology Ltd, Cambridge, UK.
The assay was carried out using the manufacturer's (Amersham) protocol manual, with the following modifications: bovine serum albumin was added to the assay buffer to give an end concentration of 0.5 mg/ml the assay was carried out in Eppendorf reaction vessels, using 100 μl volume per batch the manufacturer's RT concentrate (5000 U/ml) was diluted in Tris-HCl buffer 20 mM; pH 7.2; 30% of glycerol, to an activity of 15 U per ml the incubation time for the mixtures was 60 minutes (37° C.) after stopping the reaction and “developing” with the bead suspension, 130 μl of mixture were transferred to 4.5 ml of Tris-HCl buffer, 10 mM; pH 7.4; 0.15 M NaCl, and the tritium activity was measured by means of a [formula]-counter.
For a pre-assay for inhibitory activity, the substances were dissolved in DMSO (stock solution c=1 mg/ml), and tested as a 10^−1, 10^−2, 10^−3, etc., dilution in DMSO.
To determine IC50 values, the inhibitor stock solutions were diluted further in Tris-HCl buffer, 50 mM, pH 8, and tested in suitable concentrations.
The concentration corresponding to a 50% enzyme inhibition was determined from a plot of RT activity versus log Clnh.

HIV = assay: Test of preparations against HIV in cell culture (T-cell culture assay); assay type: cell-based; conditions: Human immunodeficiency virus 1, 72 h; lowest concentration where no giant cells were observed; HIV-infected lymphocytes from donor blood, 3 days at 37° C.
Protocol: Test of Preparations Against HIV in Cell Culture
Complete medium additionally contains 20% fetal calf serum and 40 IU/ml recombinant interleukin 2.
Lymphocytes which have been isolated from fresh donor blood by means of Ficoll gradient centrifugation are cultured for 36 hours in complete medium with an addition of 2 μg/ml phytohemagglutinin (Wellcome) at 37° C. under 5% of CO2. After 10% of DMSO has been added, the cells are frozen at a density of 5 [formula]10^6 and stored in liquid nitrogen. For the test, the cells are defrosted, washed in RPMI medium and cultured for 3-4 days in the complete medium.
The test preparations were dissolved in DMSO at a concentration of 16.7 mg/ml and diluted in complete medium to 1 mg/ml.
0.4 ml of medium was introduced into 24-multiwell dishes. 0.1 ml of the dissolved preparation was added to the upper row of the dish, and, by transferring 0.1 ml portions, a geometric dilution series was established. Controls without preparation always contained 0.4 ml of complete medium containing 0.5% of DMSO. Lymphocyte cultures with a cell density of 5 [formula]10^5 cells/ml were infected by adding 1/50 volume supernatant from HIV-infected lymphocyte cultures. The titer of these culture supernatants was determined by end-point titration as 1-5 [formula]10^6 infectious units/ml. After 30 minutes' incubation at 37° C., the infected lymphocytes were removed by centrifugation and taken up in an equal volume of medium. From this cell suspension, 0.6 ml aliquots were transferred into all wells of the test plate. The mixtures were incubated for 3 days at 37° C.
The infected cell cultures were examined under the microscope for the presence of giant cells, which indicate active virus multiplication in the culture. The lowest concentration of preparation where no giant cells were observed was determined as inhibitory concentration against HIV. As a control, the supernatants from the culture plates were tested for the presence of HIV antigen with the aid of an HIV antigen test following the manufacturer's instructions (Organon).

Row | Compound | melting point [°C] | IC50 [1] [µM] | MIC (HIV) [mg/L]
1 | C[C@H]1C(=O)Nc2c(N)cc(Cl)cc2N1C(=O)OCc1ccccc1 [Example V, (3S)-8-Amino-4-N-(benzyloxycarbonyl)-6-chloro-3-methyl-3,4-dihydroquinoxalin-2(1H)-one] | 152 to 154 | 21.7 | 
2 | CC=CCN1c2cc(Cl)ccc2NC(=O)[C@@H]1C [VII, (3S)-6-Chloro-3-methyl-4-N-(2-buten-1-yl)-3,4-dihydroquinoxalin-2(1H)-one] | 87 to 88 | 0.399 | < 0.16
3 | C[C@H]1C(=O)Nc2ccc(Cl)cc2N1C(=O)Oc1ccc(F)cc1 [Example X, (3S)-6-Chloro-4-N-(4-fluorophenoxycarbonyl)-3-methyl-3,4-dihydroquinoxalin-2(1H)-one] | 168 to 170 |  | 0.8 (≈ 2.39 µM)
4 | CC(C)=CCN1c2cc(Cl)ccc2NC(=O)[C@@H]1C [VI-A, (3S)-6-Chloro-3-methyl-4-N-(3-methyl-2-buten-1-yl)-3,4-dihydroquinoxalin-2(1H)-one] | 117 to 118 | 0.302 | 0.16 (≈ 0.604 µM)
5 | C[C@H]1C(=O)Nc2c(cc(Cl)cc2[N+](=O)[O-])N1C(=O)OCc1ccccc1 [Example IV, (3S)-4-N-(Benzyloxycarbonyl)-6-chloro-3-methyl-8-nitro-3,4-dihydroquinoxalin-2(1H)-one] | 85 |  | > 0.8
6 | C=C(C)OC(=O)N1c2cc(Cl)ccc2NC(=S)[C@@H]1C [XXIII, (3S)-6-Chloro-4-N-(isopropenyloxycarbonyl)-3-methyl-3,4-dihydroquinoxaline-2(1H)-thione] | 148 to 150 | 0.0842 | < 0.01
7 | C=COC(=O)N1c2cc(Cl)ccc2NC(=O)[C@@H]1C [XIV, (3S)-6-Chloro-3-methyl-4-N-(vinyloxycarbonyl)-3,4-di-hydroquinoxalin-2(1H)-one] | 177 to 179 | 0.6 | < 0.16
8 | C[C@H]1C(=O)Nc2ccc(Cl)cc2N1C(=O)OCCBr [Example XII, (3S)-4-N-(2-Bromoethyloxycarbonyl)-6-chloro-3-methyl-3,4-dihydroquinoxalin-2(1H)-one] | 133 to 136 |  | < 0.8

— patent US6369057B1, “Quinoxalines, processes for their preparation and their use” (Aventis Pharma Deutschland GmbH, priority 1991, dated 2002)
